Activity calls are given as the source filed them.
Columns and labels:
[1] = biological target: Cytochrome P450 2C19 (Homo sapiens, UniProt P33261); test: Cytochrome panel assay with activity outcomes. Panel member name: p450-cyp2c19 Compounds with AC50 equal or less than 10 uM are considered active; format: functional
[2] = system: Streptococcus sp. 'group A'; test: Streptococcus pyogenes SK(-)GAS viability under kanamycin – luminescence, BacTiterGlo, confirmation, counter-screen for streptokinase expression inhibitor project, dose response (AID 1900); format: functional, organism-based
[3] = biological target: T1, Streptokinase A (Streptococcus pyogenes serotype M1, UniProt P10520); test: viability-normalized secreted streptokinase activity reduction – plasminogen activation absorbance, OD405, dose response (AID 1914); format: functional, Streptococcus pyogenes M1 GAS;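 also: secreted streptokinase activity via plasminogen activation per viability signal from cell pellet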
T1 sequence (P10520 whole entry): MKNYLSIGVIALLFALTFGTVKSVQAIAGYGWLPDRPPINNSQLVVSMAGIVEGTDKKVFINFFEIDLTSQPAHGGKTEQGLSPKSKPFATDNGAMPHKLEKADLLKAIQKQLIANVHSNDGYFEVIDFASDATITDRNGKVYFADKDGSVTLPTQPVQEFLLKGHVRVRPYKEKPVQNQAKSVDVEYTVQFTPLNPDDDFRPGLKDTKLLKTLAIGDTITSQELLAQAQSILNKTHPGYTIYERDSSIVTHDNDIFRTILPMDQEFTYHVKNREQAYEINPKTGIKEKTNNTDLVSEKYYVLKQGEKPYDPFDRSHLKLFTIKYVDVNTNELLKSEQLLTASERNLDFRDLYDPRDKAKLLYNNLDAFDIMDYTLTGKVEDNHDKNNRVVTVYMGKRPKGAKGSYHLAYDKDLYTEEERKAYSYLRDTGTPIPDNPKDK

[4] = system: Streptococcus; test: GAS UMAA2166 growth inhibition – luminescence, BacTiterGlo, counter-screen for streptokinase expression inhibitor project, dose response (AID 1915); format: functional, organism-based;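 also: potency for reduction of bacterial viability or growth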
[5] = biological target: T2, Rac GTPase-activating protein 1 (Homo sapiens, UniProt Q9H0H5); test: blockers of MgcRacGAP-driven Rac1 GTP hydrolysis – biochemical, ADP Hunter fluorescence, primary and confirmatory, confirmation (AID 624330); format: functional
T2 sequence (Q9H0H5 whole entry): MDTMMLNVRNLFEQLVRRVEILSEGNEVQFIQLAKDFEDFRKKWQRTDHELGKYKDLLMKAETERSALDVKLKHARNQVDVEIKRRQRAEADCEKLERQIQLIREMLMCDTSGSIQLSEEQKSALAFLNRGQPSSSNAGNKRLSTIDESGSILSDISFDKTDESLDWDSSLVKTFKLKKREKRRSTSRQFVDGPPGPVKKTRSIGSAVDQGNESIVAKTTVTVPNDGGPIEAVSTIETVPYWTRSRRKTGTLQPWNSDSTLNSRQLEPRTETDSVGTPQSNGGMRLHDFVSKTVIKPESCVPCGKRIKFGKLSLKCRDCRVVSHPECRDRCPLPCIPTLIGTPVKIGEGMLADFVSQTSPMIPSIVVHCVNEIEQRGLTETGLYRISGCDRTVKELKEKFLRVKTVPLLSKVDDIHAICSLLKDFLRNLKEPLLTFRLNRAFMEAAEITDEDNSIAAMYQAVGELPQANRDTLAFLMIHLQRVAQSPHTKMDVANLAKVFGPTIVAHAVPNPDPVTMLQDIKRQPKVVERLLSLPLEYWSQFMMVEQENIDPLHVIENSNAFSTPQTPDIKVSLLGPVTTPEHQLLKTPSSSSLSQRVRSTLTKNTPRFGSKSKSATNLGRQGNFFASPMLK

[6] = biological target: Cytochrome P450 2C9 (Homo sapiens, UniProt P11712)
[7] = biological target: Cytochrome P450 2D6 (Homo sapiens, UniProt P10635);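 also: CYP2D6 member of a cytochrome P450 panel assay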
[8] = biological target: T3, Cytochrome P450 1A2 (Homo sapiens, UniProt P05177)
T3 sequence (P05177 whole entry): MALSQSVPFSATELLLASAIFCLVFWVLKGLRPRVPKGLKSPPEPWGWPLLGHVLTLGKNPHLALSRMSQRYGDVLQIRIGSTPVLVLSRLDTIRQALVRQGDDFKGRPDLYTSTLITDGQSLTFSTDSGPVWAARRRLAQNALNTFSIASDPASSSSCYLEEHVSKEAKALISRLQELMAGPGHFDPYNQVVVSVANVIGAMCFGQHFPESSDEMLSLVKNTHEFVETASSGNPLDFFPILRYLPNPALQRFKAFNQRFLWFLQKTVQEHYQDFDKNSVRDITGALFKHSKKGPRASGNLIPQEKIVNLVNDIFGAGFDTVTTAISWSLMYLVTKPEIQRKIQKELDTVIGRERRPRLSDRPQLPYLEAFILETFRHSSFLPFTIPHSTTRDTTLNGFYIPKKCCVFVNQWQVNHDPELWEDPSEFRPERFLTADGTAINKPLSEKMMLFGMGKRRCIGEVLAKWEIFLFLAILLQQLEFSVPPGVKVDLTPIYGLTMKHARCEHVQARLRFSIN

Chain of Cytochrome P450 2C9 (P11712 whole entry): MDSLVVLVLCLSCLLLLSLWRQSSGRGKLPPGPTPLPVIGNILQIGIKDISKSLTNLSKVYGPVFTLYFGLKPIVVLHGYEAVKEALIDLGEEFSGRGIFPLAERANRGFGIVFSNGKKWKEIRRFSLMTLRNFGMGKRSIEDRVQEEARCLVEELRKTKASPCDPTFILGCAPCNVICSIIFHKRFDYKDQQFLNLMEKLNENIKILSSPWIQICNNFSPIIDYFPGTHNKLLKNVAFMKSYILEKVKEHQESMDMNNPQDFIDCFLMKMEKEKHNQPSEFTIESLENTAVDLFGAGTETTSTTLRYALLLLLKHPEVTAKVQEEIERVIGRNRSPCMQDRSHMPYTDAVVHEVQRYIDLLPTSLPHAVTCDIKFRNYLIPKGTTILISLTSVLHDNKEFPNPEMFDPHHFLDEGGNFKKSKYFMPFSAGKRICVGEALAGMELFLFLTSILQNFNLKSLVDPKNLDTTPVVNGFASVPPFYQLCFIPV
Chain of Cytochrome P450 2C19 (P33261 whole entry): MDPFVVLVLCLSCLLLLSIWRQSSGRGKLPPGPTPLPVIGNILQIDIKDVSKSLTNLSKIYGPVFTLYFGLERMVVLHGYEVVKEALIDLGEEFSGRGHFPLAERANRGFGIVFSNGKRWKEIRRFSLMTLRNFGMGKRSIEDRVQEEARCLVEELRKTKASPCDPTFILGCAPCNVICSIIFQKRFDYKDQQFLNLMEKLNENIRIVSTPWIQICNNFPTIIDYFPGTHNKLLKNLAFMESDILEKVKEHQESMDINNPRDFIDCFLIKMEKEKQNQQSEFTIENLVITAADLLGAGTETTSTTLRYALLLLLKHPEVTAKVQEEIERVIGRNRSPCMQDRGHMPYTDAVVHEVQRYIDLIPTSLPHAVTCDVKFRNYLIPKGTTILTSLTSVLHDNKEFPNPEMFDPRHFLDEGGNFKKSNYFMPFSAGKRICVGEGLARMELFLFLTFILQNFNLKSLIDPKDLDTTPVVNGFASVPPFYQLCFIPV
Chain of Cytochrome P450 2D6 (P10635 whole entry): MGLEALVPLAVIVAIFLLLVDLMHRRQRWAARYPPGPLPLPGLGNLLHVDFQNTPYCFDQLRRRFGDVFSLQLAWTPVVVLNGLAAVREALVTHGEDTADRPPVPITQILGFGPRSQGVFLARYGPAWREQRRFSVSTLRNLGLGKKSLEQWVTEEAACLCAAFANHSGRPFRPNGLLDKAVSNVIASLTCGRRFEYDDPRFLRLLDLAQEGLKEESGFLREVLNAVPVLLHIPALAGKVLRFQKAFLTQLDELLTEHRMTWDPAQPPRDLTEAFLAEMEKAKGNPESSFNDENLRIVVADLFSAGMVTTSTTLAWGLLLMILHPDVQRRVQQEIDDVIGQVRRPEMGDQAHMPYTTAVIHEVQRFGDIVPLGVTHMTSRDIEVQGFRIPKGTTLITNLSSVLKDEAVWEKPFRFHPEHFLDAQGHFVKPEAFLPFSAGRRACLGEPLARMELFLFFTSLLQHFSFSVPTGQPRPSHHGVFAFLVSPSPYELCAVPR

## N=C(N)SCC(=O)O
[1]
  AC50: inconclusive

## CC(=O)NC(CCS(C)(=O)=O)C(=O)Nc1c(F)cccc1F (stereo not drawn)
[1]
  AC50: inconclusive

## O=C(c1cccs1)N1CCC(c2nc(O)c3nnn(Cc4ccccc4Cl)c3n2)CC1
[2]
  EC50: > 50 µM (not active)
[3]
  EC50: > 150 µM (not active)
[4]
  EC50: > 50 µM (not active)

## CCOC(=O)c1[nH]c2ccccc2c1N=C(S)Nc1cccc(C)c1
[5]
  IC50: 115 µM (active)

## O=c1c(-c2ccc(F)cc2)nc2cnc(Oc3ccccc3)nc2n1Cc1cccs1
[6]
  AC50: 2.51 µM (inconclusive)

## COc1ccc(C(=O)N2CCC[C@@]3(CCN(CC(C)C)C3)C2)cc1
[7]
  AC50: 15.8 µM (inconclusive)
[8]
  AC50: 31.6 µM (inconclusive)

## COc1cc(/C=C/C(=O)OCC(=O)NCC2CCCCC2)ccc1O
[5]
  IC50: 39.3 µM (active)

## Cc1ccccc1NC(=O)NCCCCc1ccccc1
[2]
  EC50: > 150 µM (not active)
[3]
  EC50: > 150 µM (not active)
[4]
  EC50: > 150 µM (not active)

## Cn1cc(-c2nc3cnc(N4CCNCC4)nc3n(CCc3ccccc3)c2=O)c2ccccc21
[7]
  AC50: 39.8 µM (inconclusive)
[8]
  AC50: 15.8 µM (inconclusive)

## Cc1cnc(CNc2ncncc2-c2ccc3c(c2)OCO3)cn1
[7]
  AC50: 20 µM (inconclusive)

## CC(C)CN(Cc1cc(=O)oc2cc3c(cc12)CCCC3)CC(C)C
[2]
  EC50: 6.12 µM (active)
[3]
  EC50: 5.67 µM (active)
[4]
  EC50: 21.2 µM (active)

## N#Cc1ccc(OC(=O)c2ccc(NC(=N)N)cc2)cc1.c1ccncc1
[7]
  AC50: 3.16 µM (inconclusive)
[8]
  AC50: 2.51 µM (inconclusive)

## CCOC(=O)C1CCCN(C(=O)CSCc2ccccc2)C1 (stereo not drawn)
[7]
  AC50: 15.8 µM (inconclusive)

## COCCN=C(S)NC1CC2CCCC(C1)N2Cc1cccs1 (stereo not drawn)
[6]
  AC50: 39.8 µM (inconclusive)

## CCOC(=O)c1cc2sc(C)cc2n1CC(=O)N1CCN(C(=O)c2ccco2)CC1
[8]
  AC50: 31.6 µM (inconclusive)
[6]
  AC50: 20 µM (inconclusive)

## COc1ccc2[nH]cc(CCNc3ccnc(-c4ccccc4C(F)(F)F)n3)c2c1
[7]
  AC50: 15.8 µM (inconclusive)

## O=C(Nc1ncc2c(n1)-c1ccccc1CC2)c1cccc(Cl)c1
[8]
  AC50: 2.82 µM (inconclusive)
[6]
  AC50: 20 µM (inconclusive)

## COc1cc(/C=C2\C(=N)N3N=C(CC(=O)N4CCOCC4)SC3=NC2=O)ccc1O
[5]
  IC50: 159 µM (active)

## c1cncc(-c2cc(NCc3cccs3)ncn2)c1
[7]
  AC50: 25.1 µM (inconclusive)

## O=C(NC(=S)Nc1ccc(-c2nc3ncccc3o2)cc1)c1ccccc1F
[2]
  EC50: 84.3 µM (active)
[3]
  EC50: > 150 µM (not active)
[4]
  EC50: 21.3 µM (active)

## CCn1c(=S)sc2c(O)nc(SCC(=O)Nc3cc(OC)ccc3OC)nc21
[2]
  EC50: 6.33 µM (active)
[3]
  EC50: 17.8 µM (inconclusive)
[4]
  EC50: > 150 µM (not active)

## Cc1ccc(-c2ncccc2OC(=O)C23CC4CC(CC(C4)C2)C3)cc1
[7]
  AC50: 22.4 µM (inconclusive)
[6]
  AC50: 31.6 µM (inconclusive)

## COc1ccc(O[C@H]2C=C[C@@H](c3ccccc3)O[C@H]2CO/N=C\C[C@@H]2C=C[C@H](OC(C)=O)[C@H](COC(C)=O)O2)cc1
[6]
  AC50: 3.16 µM (inconclusive)

## CC(=O)N1CCN(c2ccccc2NC(=O)COc2ccc(Br)cc2)CC1
[7]
  AC50: 15.8 µM (inconclusive)

## O=C(CNC(=O)c1cccs1)NCC(=O)OCc1ccc(Cl)cc1
[6]
  AC50: 0.126 µM (inconclusive)

## CCOC(=O)c1oc2cc(O)cc(C)c2c1C
[5]
  IC50: 21 µM (active)

## Oc1ccc(Cc2ccccc2Cl)c(O)c1
[5]
  IC50: 54.8 µM (active)

## COc1ccc(C(=O)O[C@H]2CC[C@@]3(C)[C@H]4CC[C@H]5[C@]3(C[C@]3(O)[C@H]6CN7C[C@H](C)CC[C@H]7[C@](C)(O)[C@]6(O)[C@H](O)C[C@]53O)O[C@]24O)cc1OC
[1]
  AC50: inconclusive

## CCOC(=O)c1sc(/N=C/c2ccc(O)cc2O)cc1C
[5]
  IC50: 22.4 µM (active)

## CCOc1cc(/C=N\n2nnnc2N)ccc1O
[5]
  IC50: 32.1 µM (active)

## COc1ccc(CNc2ncnc3ccc(-c4ccc(N(C)C)cc4)cc23)c(OC)c1
[7]
  AC50: 25.1 µM (inconclusive)
[6]
  AC50: 0.398 µM (inconclusive)
